Test results from US9765063B2, “Amido compounds as RORγt modulators and uses thereof” (New York University, priority 2011, dated 2017).
“Also recorded” adds a separate entry of the source. Read-outs that look alike come from different tables or passages of the source.

What was measured:
Format in all cases: cell-based
[1] = test system: human Th17 cell differentiation; assay: Human Th17 cell differentiation (FACS, FIG. 2); details: FIG. 2, FACS, 0.5 μM
Method: • 1) S2 cell reporter system: Identified hits from HTS are further screened and their specificity confirmed by testing against RORγ-luc, VP16-luc, RORα-luc, and DHR3-luc reporter S2 cell lines. Compounds either having no activity on VP16, RORα, and DHR3 or having ten times higher IC50 values on such reporters are selected for further tests. • 2) Cytokine induced mouse Th17 cells differentiation. Effects on mouse endogenous RORγt in a relevant physiological setting were determined by testing compounds in the Th17 cell differentiation assay. Compounds having RORγt inhibitory activity are predicted to suppress Th17 cell differentiation. Th1 or regulatory T cell differentiation was used as a counter-screen method to select specific compounds that only affect Th17 cell differentiation without having pleiotrophic effects on general T cell proliferation or cytokine production. • 3) ROR dependent Th17 cell differentiation. Compounds were further tested, by examining their effects on T cells expressing RORα or RORγ. […] Compounds affecting IL17a production or ROR regulatory pathways, however, are expected to inhibit both. • 4) Human Th17 cell differentiation. Compound effects on human RORγt will be tested by treating human cord blood CD4 T cells with select compounds to determine if such compounds alter differentiation into Th17 lineages.
(§1) For Th1 differentiation, IL12 (10 ng/ml) and IL2 (100 U/ml) were added to naive CD4 T cell cultures instead of TGFβ and IL6.

[2] = test system: human Th1 cell differentiation; assay: Human Th1 cell differentiation, IFNγ production (counter-screen, FIG. 2); details: FIG. 2, FACS, 0.5 μM, naive CD4 T cells, IL12 and IL2
Method: as §1

RORα = RORα overexpression dependent IL17a production in human CD4 T cells (FIG. 3); details: FIG. 3, FACS, 0.5 μM; listed as NCGC00238427
Method: (§2) Briefly, CD3+ CD4+ CD45RA+ naive human T cells were isolated from peripheral blood derived from healthy donors. The naive T cells were cultured in XVIVO-20 (Lonza) medium for 7 days in the presence of IL2 and stimulatory CD3 and CD28 antibodies. Cells were infected with lentivirus encoding human RORα or RORγ and compound or DMSO was added on day 2. FACS plot analysis is shown after gating on GFP expressing (virus infected) cells.

[3] = test system: mouse Th17 cell differentiation; assay: Th17 assay: mouse Th17 polarization (IL-17a producing cells, FACS); details: for IC50: naive mouse CD4 T cells, TGFβ and IL6, compounds added Day 1, analyzed Day 4, read-out: Th 17 IC50
Method: (§3) Percentage of DMSO treated IL-17a producing cells was set at 100. Naive mouse CD4 T cells (CD25^−, CD62L^+, and CD44^low-int) were sorted and cultured with CD3/CD28 stimulatory antibodies in the presence of TGFβ (0.1 ng/ml) and IL6 (20 ng/ml). Compounds were added on Day 1 and cells were analyzed on Day 4. For intracellular cytokine staining, cells were incubated for 5 h with phorbol ester (50 ng/ml; Sigma), ionomycin (500 ng/ml; Sigma) and GolgiStop (BD). When needed, surfaces were stained by incubation for 15 min on ice with PECy7-conjugated CD4 (BD Biosciences). The Cytofix/Cytoperm buffer set (BD) was used for intracellular staining. Cells were fixed and made permeable for 30 min on ice and were stained for 30 min on ice in permeabilization buffer with Alexa647-conjugated anti-IL17a (eBioscience) and PE-conjugated anti-IFNg (eBioscience). An LSR II (BD Biosciences) and FlowJo software (Tree Star) were used for flow cytometry. RORg IC50 value acquired from the S2 cell reporter assay is listed for comparison.
as §3, with “With respect to the methodological details pertaining to FIG. 1, naive” for “Percentage of DMSO treated IL-17a producing cells was set at 100. Naive mouse”, “(BD).” for “(BD). When needed, surfaces were stained by incubation for 15 min on ice with PECy7-conjugated CD4 (BD Biosciences).”, “anti-IFNγ” for “anti-IFNg”, “cytometry.” for “cytometry. RORg IC50 value acquired from the S2 cell reporter assay is listed for comparison.”

RORγt [4] = assay: RORγt overexpression dependent IL17a production in human CD4 T cells (FIG. 3); details: FIG. 3, FACS, 0.5 μM
Method: as §2

RORγt [5] = target: T1, RORγt (Mus musculus, UniProt P51450); assay: RORγt S2 cell reporter assay (Gal4-RORγt fusion, UAS-luciferase)
T1 construct: expressed in transfected cells; the other entry of the earlier key: GAL4 (P04386, Regulatory protein GAL4)
T1 sequence (P51450 with tags, fused parts or gaps): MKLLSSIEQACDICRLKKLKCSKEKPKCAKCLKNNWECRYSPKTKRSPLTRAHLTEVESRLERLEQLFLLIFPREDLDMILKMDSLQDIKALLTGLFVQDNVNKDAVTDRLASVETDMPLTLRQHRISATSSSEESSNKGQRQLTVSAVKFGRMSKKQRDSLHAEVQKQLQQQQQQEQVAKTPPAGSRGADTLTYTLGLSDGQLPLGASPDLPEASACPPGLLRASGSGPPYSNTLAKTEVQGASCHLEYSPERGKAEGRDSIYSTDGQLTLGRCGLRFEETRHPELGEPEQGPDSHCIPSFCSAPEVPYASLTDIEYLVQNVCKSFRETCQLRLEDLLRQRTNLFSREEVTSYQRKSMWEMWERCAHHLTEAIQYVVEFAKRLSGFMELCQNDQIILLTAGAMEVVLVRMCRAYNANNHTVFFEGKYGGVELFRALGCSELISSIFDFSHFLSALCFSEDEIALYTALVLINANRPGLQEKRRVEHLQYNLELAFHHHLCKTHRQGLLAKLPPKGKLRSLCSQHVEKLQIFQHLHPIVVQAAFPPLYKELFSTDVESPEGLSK
Description: Methods: The Drosophila S2 cell line was originally purchased from Invitrogen and was maintained in Schneider's medium supplemented with 10% heat-inactivated bovine fetal calf serum and antibiotics (Invitrogen). […] The resulting chimeric gene was subcloned into the copper inducible pMT/V5-His A vector (available from Invitrogen).
Renilla luciferase construct under the polIII promoter was obtained from Dr. Dasgupta's laboratory (NYU medical center). In order to generate stable cell lines, cells were co-transfected with pMT-G4DBD-RORγt, pMT-G4DBD-RORα, pMT-G4DBD-DHR3, or pMT-G4DBDVP16 and pHygro plasmids (Invitrogen) and screened for resistant colonies in the presence of hygromycin (0.3 mg/mL). […] Using similar methods, stable clones with genomic integration of the luciferase reporters and other reporters were generated such as pMT-RORα_luc, pMT-DHR3_luc, or pMT-VP16_luc.
Methods: 600 G4DBD-RORγ/γt-luc reporter (#25) or G4DBD-VP16-luc reporter cells were distributed into each well of 1,536-well white bottom plates in 4 μl S2 cell culture volume containing hygromicin (300 μg/ml) and puromycin (2 μg/ml). […] After one-hour incubation, 1 of culture medium solution containing copper sulfate (to final 0.7 mM) and 10 μM RORγ/γt antagonists were added to each well. After 20-hour incubation at ambient temperature, 1.5 μl firefly luciferase detection mix was added and the luciferase activities were measured in 10 min. ViewLux luminometers were used for measuring luciferase signal.
A cell-based reporter assay was used to detect RORγt-mediated activity. This assay, called RORγt employed Drosophila Schneider cells that were stably transfected with two vectors: a gene expressing a fusion of the Gal4 DNA binding domain and RORγt transactivation domain under the control of the metallothionine promoter and a Photinus luciferase reporter regulated by the Gal4 binding site enhancer, UAS. […] Cells (600/well) were dispensed into white solid 1536-well plates (Greiner) using a solenoid-based dispenser. Following transfer of […] compound or DMSO vehicle by a pin tool, the plates were incubated 1 hr at ambient temperature, and 1 uL/well copper sulfate (700 uM final concentration) was added. The plates were centrifuged 15 s at 1000 RPM and incubated 20 hr at ambient temperature. After addition of 1.5 uL Photinus luciferase detection reagent, the plates were incubated 10 min at ambient temperature and then read by a ViewLux (Perkin Elmer) to detect luminescence. […] Efficacy is expressed as % of the maximal response of control inhibitor (Digoxin), set at 100%.

Emax (RORγt [5]; Table 1, % of the maximal response of control inhibitor (Digoxin), set at 100%, read-out: Efficacy (%))	IC50 (RORγt [5]; Table 1, Drosophila S2 cells, luciferase reporter, read-out: IC50)	IC50 (RORγt [5]; Table 2, from the S2 cell reporter assay, listed for comparison, read-out: S2 cell RORg IC50)	Compound	human Th17 cell differentiation ([1]; listed as NCGC00238427)	Th1 cell differentiation, as measured by IFNγ production ([2]; listed as NCGC00238427)	RORα overexpression dependent IL17a production in human CD4 T cells (RORα)	mouse Th17 cell differentiation, as measured by IL17a production ([3]; FIG. 1, FACS, at the indicated concentrations)	IC50 [3]	RORγt overexpression dependent IL17a production in human CD4 T cells (RORγt [4]; listed as NCGC00238427)	human Th17 cell differentiation [1]	Th1 cell differentiation, as measured by IFNγ production [2]	RORγt overexpression dependent IL17a production in human CD4 T cells (RORγt [4])
–	–	–	COc1cc(O)c(C(CC(=O)N2CC(C)CC(C)C2)c2ccc3c(c2)OCO3)c(OC)c1 (stereo not shown) [RC1, reference compound]	selectively suppress human Th17; also recorded: selectively suppresses human Th17 cell differentiation	does not inhibit Th1 cell differentiation	unaffected	suppress mouse Th17 cell differentiation	1 to 10 µM	selectively inhibit RORγt dependent; also recorded: selectively inhibits RORγt overexpression dependent IL17a production	–	–	–
88.7%	1 to 10 µM	1 to 10 µM	COc1cc(O)c(C(CC(=O)N2CC(C)CC(C)C2)c2cccc(C(=O)O)c2)c(OC)c1 (stereo not shown) [Compound 101, 3-(3-(3,5-Dimethylpiperidin-1-yl)-1-(2-hydroxy-4,6-dimethoxyphenyl)-3-oxopropyl)benzoic acid]	–	–	–	–	> 20 µM	–	neither of which exhibits the ability to suppress human Th17 or Th1 cell differentiation	neither of which exhibits the ability to suppress human Th17 or Th1 cell differentiation	neither of which exhibits the ability to inhibit RORγt dependent human Th17 cell differentiation
